# Tests used:
# [1] = system: ulcerogenic properties of indomethacin; assay: Protection against indomethacin-induced ulcers in rats; format: in vivo; conditions: indomethacin 20 mg./kg. s.c.
# Procedure: The compounds of this invention provide protection against the ulcerogenic properties of indomethacin. This assay was carried out in the following manner.
# Rats were starved for 48 hours (water was given ad libitum). Indomethacin (20 mg./kg. of body weight) was administered by the subutaneous route and one-half the dose of the test compound was administered by gavage at the same time. After three hours, the second half of the test compound was administered also by Gavage. Five hours after the administration of indomethacin the animals were decapitated and the stomachs removed. The stomachs were washed with distilled water, blotted on gauze, cut along the larger curvature, and the contents rinsed with distilled water. The stomachs were spread out, pinned on a cork and visualized under magnifying glass for ulcers. The criteria for scoring of ulcers was as previously reported. [Abdel-Galil et al. Brit. J. Pharmac. Chemotherapy 33:1-14 (1968)]. […]
# Control animals treated with indomethacin but not test compound consistently give scores of about 3.0-3.5. Control animals treated with neither indomethacin nor test compound give scores of about 0.5-0.8. Compounds producing a score of 2.5 or lower are considered to be active.
# gastric acid secretion = assay: Gastric acid secretion inhibition, modified Shay rat procedure; format: in vivo, rats (male, CFE strain); conditions: pylorus-ligated rats, intraduodenal dose 100 mg./kg., 3 hours, 20% or more active, read-out: Percent Inhibition of gastric acid secretion
# Procedure: The novel compounds of the present invention are also effective inhibitors of gastric acid secretion and of ulcer development in experimental animals, and thus are potentially valuable as agents for the control of gastric acid secretion and of gastric erosion and as anti-ulcer agents. Gastric acid secretion inhibitory action is usually measured by the "Shay rat" procedure^(1,2) with some modifications as follows.
# The rats (male, CFE strain), were starved for 48 hours (water was given ad libitum) to permit evacuation of stomach contents. On the morning of the experiment, under ether anesthesia, the abdominal region was shaved and a midline incision (1-11/2") was made with a scapel. […]
# The abdominal cavity was exposed by cutting with scissors and the esophagus close to the stomach was clamped off with a hemostat, the stomach was removed by cutting above the hemostat (the esophagus was cut) and between the two sutures. […] The supernatant was collected, volume measured and recorded, 2 drops of a phenolphthalein indicator (1% in 95% ethanol) were added and the solution was titrated with 0.02 N NaOH (or with 0.04 N NaOH when large volumes of stomach contents were encountered) to pH 8.4 (because of usual coloring of the stomach contents, phenolphthalein was only used to permit visual indication that the end point was near) and the amount of acid present was calculated. […]
# [2] = total oral dose 25 mg./kg. in two halves by gavage, scale 0 normal stomach to 4 many ulcers, mainly large, 2.5 or lower active, control 3.2
smiles,measurement,setting,value
CCCCCC(O)/C=C\C1CCC(=O)C1CCCCCCC(=O)O (stereo not drawn) [9-oxo-15-hydroxy-13-cis-prostenoic acid],Score Treated (ulcer score),"[1]; total oral dose 100 mg./kg. in two halves by gavage, scale 0-4, 2.5 or lower active, control 3.0",1.3
CCCCCC(O)/C=C/C1CCC(=O)C1CCCCCC(CC)C(=O)O (stereo not drawn) [9-oxo-15-hydroxy-2-ethyl-13-trans-prostenoic acid],Score Treated (ulcer score),"[1]; total oral dose 50 mg./kg. in two halves by gavage, scale 0-4, 2.5 or lower active, control 3.0",2.2
CCCCC[C@@H](O)/C=C/[C@H]1CCC(=O)[C@@H]1CCCCSCC(=O)O (relative stereo) [9-oxo-3-thin-15-epi-hydroxy-13-trans-prostenoic acid],Score Treated (ulcer score),[1]; [2],2.3
CCCCC[C@H](O)/C=C/[C@H]1CCC(=O)[C@@H]1CCCCSCC(=O)O (relative stereo) [9-oxo-3-thia-15-hydroxy-13-trans-prostenoic acid],Score Treated (ulcer score),[1]; [2],1.8
CCCCC(CC)C(O)/C=C/C1CCC(=O)C1CCCCCCC(=O)O (stereo not drawn) [9-oxo-15-hydroxy-16-ethyl-13-trans-prostenoic acid],Score Treated (ulcer score),[1]; [2],1.7
"CCCCCC(O)/C=C/C1CCC(=O)C1CCCCC(C)(C)CC(=O)O (stereo not drawn) [9-oxo-15-hydroxy-3,3-dimethyl-13-trans-prostenoic acid]",inhibition at 100 mg/kg,gastric acid secretion,51%
CCCCCC(O)/C=C/[C@H]1CCC(=O)[C@]1(C)CCCCCCC(=O)O (relative stereo) [9-oxo-8β-methyl-15-hydroxy-13-trans-prostenoic acid],Score Treated (ulcer score),"[1]; total oral dose 12.5 mg./kg. in two halves by gavage, scale 0-4, 2.5 or lower active, control 3.0",2.0

# From patent US4439365A, “Novel hydroxy substituted prostanoic acids, esters, congeners, intermediates and process” (American Cyanamid Company, priority 1979, dated 1984)
